The subject of one assay is H1975 cells (DM). Kind of assay: H1975 inhibition assay (cell proliferation), Method B. The format is cell-based. The conditions noted are these: Homo sapiens, NCI-H1975, 72 h, cellular proliferation, several runs. The procedure:
(§1) Cell Proliferation Assays—Method B
H1975 Inhibition Assay (Cell Proliferation).
(§2) Test compounds were dissolved in DMSO at 30 mM.
(§3) The final concentration was 1,000 cells/well. Add medium only as low control. […] 5% CO2 incubator for 72 hours.
(§4) After 72 hours incubation, remove the plates from incubator and equilibrate at room temperature for 15 minutes. Incubate the CellTiter Glo reagents (Promega, G9243) at 37° C. before the experiment. The buffer was equilibrated to room temperature and used to dissolve the substrate. To determine the cell viability, add 40 μL of CellTiter-Glo reagent into each well to be detected (at 1:1 to culture medium). Then the place the plates at room temperature for 30 min followed by read on EnSpire (PerkinElmer).
(§5) For estimation of IC50, the luminescence readout are transformed to % Inhibition by applying the following equation: The IC50 was then
(§6) [formula] calculated by fitting in XLFit to a four parameters logistic curve.

Another assay deals with A431 cells (WT). Kind of assay: A431 inhibition assay (cell proliferation), Method B. The settings on record: Homo sapiens, A-431, 72 h, cellular proliferation, several runs. The format is cell-based, human. The method, then:
as §1
A431 Inhibition Assay, (Cell Proliferation).
The rest procedure was conducted in the same manner as described above for H1975 cells.

For another assay, the system named is PC9 cells (SM). Put plainly: PC-9 growth inhibition assay (cell proliferation), Method B. Format: cell-based, human. The settings on record: Homo sapiens, PC-9, 72 h, cellular proliferation, several runs. The procedure: as §1, §2, §3, §4, §5, §6
PC-9 Growth Inhibition Assay (Cell Proliferation).
The inhibition assay of PC-9 cells was conducted in the same manner as described above for H1975 cells.

As usually defined, the IC50 is the concentration that inhibits the measured activity by half. For the compound `C=CC(=O)Nc1cc(Nc2nccc(-n3cc(C(=O)NC)c4ncccc43)n2)c(OC)cc1N(C)CCN(C)C` [Example 51, N-Methyl 1-(2-(5-acrylamido-4-((2-(dimethylamino)ethyl)(methyl)amino)-2-methoxyphenylamino)pyrimidin-4-yl)-1H-pyrrolo[3,2-b]pyridine-3-carboxamide], the results for the IC50 in the assay with H1975 cells (DM), with A431 cells (WT) and in the assay with PC9 cells (SM) were 3.01 nM, 239 nM and 1.51 nM, respectively.
Taken in the same sequence, the figures for `C=CC(=O)Nc1cc(Nc2ncc(Cl)c(-n3nc(NC)c4ccccc43)n2)c(OC)cc1N(C)CCN(C)C` [Example 52, N-(5-(5-Chloro-4-(3-(methylamino)-1H-indazol-1-yl)pyrimidin-2-ylamino)-2-(N-(2-(dimethylamino)ethyl)-N-methylamino)-4-methoxyphenyl) acrylamide] were 4.06 nM, 325 nM and 17.2 nM.
Taken in the same sequence, the figures for `C=CC(=O)Nc1cc(Nc2nccc(-n3nc(NC(C)=O)c4ccccc43)n2)c(OC)cc1N(C)CCN(C)C` [Example 53, N-(5-(4-(3-Acetamido-1H-indazol-1-yl)pyrimidin-2-ylamino)-2-((2-(dimethylamino)ethyl)(methyl)amino)-4-methoxyphenyl) acrylamide] were 6.23 nM, 82.5 nM and 3.09 nM.
In the same order, the values of `C=CC(=O)Nc1cc(Nc2nccc(-n3nc(Nc4ccccn4)c4ccccc43)n2)c(OC)cc1N(C)CCN(C)C` [Example 58, N-(5-(4-(3-(Pyridin-2-ylamino)-1H-indazol-1-yl)pyrimidin-2-ylamino)-2-(N-(2-(dimethylamino)ethyl)-N-methylamino)-4-methoxyphenyl) acrylamide] are 2.36 nM, 1.46 nM and 1.5 nM.
Regarding `C=CC(=O)Nc1cc(Nc2nccc(-n3nc(N4CCCC4)c4ccccc43)n2)c(OC)cc1N(C)CCN(C)C` [Example 59, N-(5-(4-(3-(Pyrrolidin-1-yl)-1H-indazol-1-yl)pyrimidin-2-ylamino)-2-(N-(2-(dimethylamino)ethyl)-N-methylamino)-4-methoxyphenyl) acrylamide], the IC50 in the assay on H1975 cells (DM) was 8.45 nM; with A431 cells (WT), 716 nM; in the assay with PC9 cells (SM), 19.7 nM.
As for `C=CC(=O)Nc1cc(Nc2nccc(-n3nc(N(C)CC)c4ccccc43)n2)c(OC)cc1N(C)CCN(C)C` [Example 60, N-(5-(4-(3-(N-Ethyl-N-methylamino)-1H-indazol-1-yl)pyrimidin-2-ylamino)-2-(N-(2-(dimethylamino)ethyl)-N-methylamino)-4-methoxyphenyl) acrylamide], the IC50 in the assay with H1975 cells (DM) was determined as 8.1 nM; in the assay on A431 cells (WT), 545 nM; in the assay with PC9 cells (SM), 11.2 nM.
Taken in the same sequence, the figures for `C=CC(=O)Nc1cc(Nc2nccc(-n3cc(-c4c[nH]nn4)c4ccccc43)n2)c(OC)cc1N(C)CCN(C)C` [Example 61, N-(5-(4-(3-(1H-1,2,3-Triazol-4-yl)-1H-indol-1-yl)pyrimidin-2-ylamino)-2-(N-(2-(dimethylamino)ethyl)-N-methylamino)-4-methoxyphenyl) acrylamide] were 94 nM, 1070 nM and 29.5 nM.
In the case of `C=CC(=O)Nc1cc(Nc2nccc(-n3cc(S(=O)(=O)NC)c4ccccc43)n2)c(OC)cc1N(C)CCN(C)C` [Example 62], the IC50 was found to be 2.24 nM in the assay with H1975 cells (DM), 43.9 nM in the assay with A431 cells (WT) and 0.94 nM in the assay on PC9 cells (SM).
In the same order, the values of `C=CC(=O)Nc1cc(Nc2ncc(Cl)c(-c3cnc(NC)c(C(C)=O)c3)n2)c(OC)cc1N(C)CCN(C)C` [Example 63] are 3.03 nM, 528 nM and 5.79 nM.
Taken in the same sequence, the figures for `C=CC(=O)Nc1cc(Nc2nccc(-c3ccc(C(N)=O)c4[nH]ccc34)n2)c(OC)cc1N(C)CCN(C)C` [Example 64, 4-(2-(5-Acrylamido-4-((2-(dimethylamino)ethyl)(methyl)amino)-2-methoxyphenylamino)pyrimidin-4-yl)-1H-indole-7-carboxamide] were 7.96 nM, 426 nM and 5.65 nM.
As for `C=CC(=O)Nc1cc(Nc2nccc(-n3nc(NC4CCOC4)c4ccccc43)n2)c(OC)cc1N(C)CCN(C)C` (stereo not drawn) [Example 65, N-(5-(4-(3-(Tetrahydrofuran-3-ylamino)-1H-indazol-1-yl)pyrimidin-2-ylamino)-2-(N-(2-(dimethylamino)ethyl)-N-methylamino)-4-methoxyphenyl) acrylamide], the IC50 is 4.21 nM in the assay on H1975 cells (DM), 121 nM in the assay on A431 cells (WT) and 6.46 nM in the assay with PC9 cells (SM).
Taken in the same sequence, the figures for `C=CC(=O)Nc1cc(Nc2nccc(-n3nc(NCC4CC4)c4ccccc43)n2)c(OC)cc1N(C)CCN(C)C` [Example 66, N-(5-(4-(3-(Cyclopropylmethylamino)-1H-indazol-1-yl)pyrimidin-2-ylamino)-2-((2-(dimethylamino)ethyl)(methyl)amino)-4-methoxyphenyl) acrylamide] were 4.99 nM, 6.04 nM and 1.96 nM.
Taken in the same sequence, the figures for `C=CC(=O)Nc1cc(Nc2nccc(-c3cc(C(N)=O)c4[nH]cc(C)c4c3)n2)c(OC)cc1N(C)CCN(C)C` [Example 68, 5-(2-(5-Acrylamido-4-((2-(dimethylamino)ethyl)(methyl)amino)-2-methoxyphenylamino)pyrimidin-4-yl)-3-methyl-1H-indole-7-carboxamide] were 0.86 nM, 264 nM and 2.37 nM.
In the same order, the values of `C=CC(=O)Nc1cc(Nc2nccc(-n3nc(NC4CC4)c4ccccc43)n2)c(OC)cc1N(C)CCN(C)C` [Example 69, N-(5-(4-(3-(cyclopropylamino)-1H-indazol-1-yl)pyrimidin-2-ylamino)-2-((2-(dimethylamino)ethyl)(methyl)amino)-4-methoxyphenyl) acrylamide] are 3.55 nM, 71.2 nM and 1.92 nM.
For `C=CC(=O)Nc1cc(Nc2nccc(-n3nc(N(C)C)c4ccccc43)n2)c(OC(C)C)nc1N(C)CCN(C)C` [Example 70, N-(5-((4-(3-(dimethylamino)-1H-indazol-1-yl)pyrimidin-2-yl)amino)-2-((2-(dimethylamino)ethyl)(methyl)amino)-6-isopropoxypyridin-3-yl) acrylamide], the IC50 in the assay with H1975 cells (DM) worked out at 9.11 nM; with A431 cells (WT) it was 812 nM; in the assay with PC9 cells (SM) it was 2.27 nM.
In the same order, the values of `C=CC(=O)Nc1cc(Nc2nccc(-n3nc(N(C)C)c4ccccc43)n2)c(OCC(F)F)nc1N(C)CCN(C)C` [Example 71] are 3.29 nM, 480 nM and 2.45 nM.
In the same order, the values of `C=CC(=O)Nc1cc(Nc2nccc(-n3nc(N(C)C)c4ccccc43)n2)c(OC)nc1N(C)CCN(C)C` [Example 72, N-(5-((4-(3-(Dimethylamino)-1H-indazol-1-yl)pyrimidin-2-yl)amino)-2-((2-(dimethylamino)ethyl)(methyl)amino)-6-methoxypyridin-3-yl) acrylamide] are 8.55 nM, 912 nM and 5.88 nM.
